From PubChem BioAssay (NCI)
Values joined by “and” are separate entries in the source; they are usually repeats but may differ in a detail not shown here. Identical values can stand only once.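 Cells were grown in 96-well plates and exposed to each compound for 48 hours at five concentrations; endpoints were interpolated linearly between bracketing concentrations, or set to the highest concentration if not reached. Abbreviation: GI50, concentration required for 50% inhibition of growth. The concentration for full growth arrest is given as TGI.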

Tests used:
Test in all cases: NCI anticancer screen, dose series, 48 h
MALME-3M melanoma = system: MALME-3M melanoma
SN12C renal = system: SN12C renal
HS 578T breast = system: HS 578T breast
SNB-75 CNS = system: SNB-75 CNS
HT29 colon = system: HT29 colon
NCI-H23 lung = system: NCI-H23 lung
BT-549 breast = system: BT-549 breast
T-47D breast = system: T-47D breast
KM12 colon = system: KM12 colon
SK-MEL-5 melanoma = system: SK-MEL-5 melanoma

SMILES	TGI (MALME-3M melanoma)	TGI (SN12C renal)	TGI (HS 578T breast)	TGI (SNB-75 CNS)	TGI (HT29 colon)	TGI (NCI-H23 lung)	TGI (BT-549 breast) [µM]	TGI (T-47D breast)	TGI (KM12 colon)	TGI (SK-MEL-5 melanoma)	GI50 (MALME-3M melanoma) [µM]	GI50 (SN12C renal)	GI50 (HS 578T breast)	GI50 (SNB-75 CNS)	GI50 (HT29 colon)	GI50 (NCI-H23 lung)	GI50 (BT-549 breast) [µM]	GI50 (T-47D breast)	GI50 (KM12 colon)	GI50 (SK-MEL-5 melanoma)
CC1(C)C(N2CCOCC2)CS1(=O)=O (stereo not given)	> 10 µM	> 10 µM	> 10 µM	> 10 µM	> 10 µM	> 10 µM	> 10	> 10 µM	> 10 µM	> 10 µM	–	–	–	–	–	–	–	–	–	–
C#C[C@@]1(O)[C@@H](CO)O[C@@H](n2cc(Br)c3c(Cl)ccnc32)[C@@H]1O	> 100 µM	> 100 µM	> 100 µM	> 39.2 µM	> 100 µM	> 100 µM	12.2	> 19.9 µM	> 100 µM	> 100 µM	32.3	0.59 µM	1.01 µM	0.657 µM	0.964 µM	1.86 µM	0.522	0.394 µM	45.2 µM	39.7 µM
COc1cccc2c1C(=O)c1c(O)c3c(c(O)c1C2=O)C[C@@](O)(C(=O)CO)CC3OC1CC(N)C(OC2CCCCO2)C(C)O1 (stereo not given in full)	–	–	1.11 µM	–	1.81 µM and 17.1 µM	0.302 µM and 2.33 µM	0.481	0.925 µM	0.583 µM and 3.09 µM	0.179 µM and 1.08 µM	0.00377	0.0157 µM	–	0.0171 µM	0.0381 µM	0.0218 µM	–	–	1.19 µM	0.0291 µM
O=C(/C=C/c1ccccc1)c1cccc2ccccc12	22.4 µM	15.4 µM	> 100 µM	7.27 µM	12.9 µM	11.9 µM	5.86	21.2 µM	3.77 µM	11.7 µM	6.12	4.29 µM	5.43 µM	2.19 µM	3.69 µM	3.19 µM	2.31	2.89 µM	1.89 µM	2.98 µM
COc1cccc2c1C(=O)c1c(O)c3c(c(O)c1C2=O)C[C@@](O)(/C(CO)=N/NC(=O)CCCCCN1C(=O)C=CC1=O)C[C@@H]3O[C@H]1C[C@H](N)[C@H](O)[C@H](C)O1	2.23 µM	> 100 µM	9.64 µM	2.99 µM	13.2 µM	5.98 µM	8.96	8.41 µM	> 100 µM	–	0.395	0.446 µM	1.69 µM	0.368 µM	1.37 µM	0.927 µM	1.21	0.49 µM	1.98 µM	–
C[C@@H](Nc1cc(F)cc(F)c1)c1cc(C(=O)N(C)C)cc2c(=O)cc(N3CCOCC3)oc12	> 84.9 µM	> 100 µM	23.6 µM	3.64 µM	> 100 µM	> 100 µM	38.4	6.94 µM	> 100 µM	> 76.8 µM	7.12	7.14 µM	0.693 µM	0.0398 µM	4.04 µM	> 87 µM	0.14	0.315 µM	> 46.1 µM	22.1 µM
C[C@]12CC[C@H](O[C@@H]3O[C@H](CO[C@@H]4O[C@H](CO)[C@@H](O)[C@H](O)[C@H]4O)[C@@H](O)[C@H](O)[C@H]3O)C[C@@H]1CC[C@@H]1[C@@H]2CC[C@]2(C)[C@@H](C3=CC(=O)OC3)CC[C@]12O	38.1 µM	65.3 µM	> 100 µM	> 84.7 µM	> 100 µM	28.1 µM	21.5	> 95.7 µM	> 100 µM	8.52 µM	–	–	–	–	–	–	–	–	–	–
CCOc1cc(-c2nncn2C)ccc1Nc1ncc2cc(C)nc(NCC(C)(C)C)c2n1	> 100 µM	> 100 µM	> 100 µM	> 100 µM	> 100 µM	> 100 µM	> 100	> 100 µM	> 100 µM	> 100 µM	> 100	> 100 µM	–	> 26 µM	1.78 µM	> 89.7 µM	> 80.5	2.83 µM	> 100 µM	> 24 µM
COc1cc(C(=O)/C=C/c2cc(-c3ccc4c(c3)OCO4)n[nH]2)cc(OC)c1OC	4.69 µM	6.28 µM	20.5 µM	7.27 µM	6.53 µM	10.3 µM	5	4.63 µM	3.85 µM	13.3 µM	1.85	2.26 µM	3.14 µM	2.4 µM	2.45 µM	2.9 µM	2.02	1.51 µM	1.86 µM	3.32 µM
COC(=O)c1c[nH]c2cc(OC(C)C)c(OC(C)C)cc2c1=O	> 100 µM	> 100 µM	> 100 µM	> 100 µM	> 100 µM	> 100 µM	> 100	> 100 µM	> 100 µM	> 100 µM	> 100	> 100 µM	> 100 µM	> 100 µM	> 100 µM	> 100 µM	> 100	> 100 µM	> 100 µM	> 100 µM
COC(=O)[C@H](Cc1cn(C)cn1)NC(=O)[C@H](CC(=O)OCc1ccccc1)NC(=O)Nc1cc(C(F)(F)F)cc(C(F)(F)F)c1	10.4 µM	17.3 µM	8.09 µM	24.1 µM	28.8 µM	30.7 µM	25.8	18.6 µM	30.7 µM	24.6 µM	3.28	4.79 µM	2.8 µM	11.8 µM	13.9 µM	15.8 µM	12	7.38 µM and 4.83 µM	14 µM	12.2 µM
Cc1cc(O)ccc1C1=NN(c2ccc(S(N)(=O)=O)cc2)C(=O)CC1	50 µM and 59.7 µM	50 µM and > 100 µM	43.9 µM and > 100 µM	21.5 µM and 82.9 µM	50 µM and > 100 µM	50 µM and > 100 µM	43.6	50 µM and > 100 µM	50 µM and > 100 µM	50 µM and > 100 µM	–	6.68 µM and 42.6 µM	6.64 µM and 60.5 µM	2.95 µM and 16.3 µM	2.52 µM and 4.65 µM	14.5 µM and 22.5 µM	1.49	3.23 µM and 13.1 µM	2.89 µM and 6.49 µM	2.1 µM and 6.78 µM
C=C1C(=O)O[C@H]2[C@H]1CC/C(COC(=O)c1cccnc1N)=C\CC[C@@]1(C)O[C@@H]21	6.65 µM	10.9 µM	65.1 µM	17.8 µM	11 µM	24.5 µM	5.6	8.01 µM	11.8 µM	12.5 µM	1.91	2.01 µM	4.15 µM	3.16 µM	0.721 µM	5.56 µM	2.17	1.85 µM	3.19 µM	2.9 µM
